In patent publication US8415272B2, “Quinoline derivatives and their use as fungicides” (Syngenta Crop Protection LLC, priority 2008, dated 2013):

What was measured:
Septoria nodorum = assay: Leaf disk assay, Septoria nodorum (wheat glume blotch), preventive; format: in vivo; conditions: Parastagonospora nodorum, foliar, 96 h, wheat leaf segments, assessed four days after inoculation, read-out: control of fungal infection, Septoria nodorum
[1] = system: Erysiphe graminis f.sp. tritici; assay: Leaf disk assay, Erysiphe graminis f.sp. tritici (wheat powdery mildew), preventive; format: in vivo; conditions: Blumeria graminis, foliar, 96 h, wheat leaf segments, assessed four days after inoculation, read-out: control of fungal infection, Erysiphe graminis f.sp. tritici
Experimental: The compounds were tested in a leaf disk assay, with methods described below. The test compounds were dissolved in DMSO and diluted into water to 200 ppm. In the case of the test on Pythium ultimum, they were dissolved in DMSO and diluted into water to 20 […] graminis f.sp. tritici (wheat powdery mildew): Wheat leaf segments were placed on agar in a 24-well plate and sprayed with a solution of the test compound. After allowing to dry completely, for between 12 and 24 hours, the leaf disks were inoculated with a spore suspension of the fungus. After appropriate incubation the activity of a compound was assessed four days after inoculation as preventive fungicidal activity.

Fusarium culmorum = assay: Growth inhibition in nutrient broth, Fusarium culmorum (root rot), photometric; format: cell-based; conditions: 48 h, read-out: control of fungal infection, Fusarium culmorum
Experimental: The compounds were tested in a leaf disk assay, with methods described below. The test compounds were dissolved in DMSO and diluted into water to 200 ppm. In the case of the test on Pythium ultimum, they were dissolved in DMSO and diluted into water to 20 ppm.
Fusarium culmorum (root rot): Conidia of the fungus from cryogenic storage were directly mixed into nutrient broth (PDB potato dextrose broth). After placing a (DMSO) solution of the test compounds into a microtiter plate (96-well format) the nutrient broth containing the fungal spores was added. The test plates were incubated at 24 C and the inhibition of growth was determined photometrically after 48 hrs.

Septoria tritici = assay: Growth inhibition in nutrient broth, Septoria tritici (leaf blotch), photometric; format: cell-based; conditions: Zymoseptoria tritici, PDB broth, 24 C, 72 hrs, read-out: control of fungal infection, Septoria tritici
[2] = system: Puccinia recondita f.sp. tritici; assay: Leaf disk assay, Puccinia recondita f.sp. tritici (wheat brown rust), preventive; format: in vivo; conditions: foliar, 216 h, wheat leaf segments, assessed nine days after inoculation, read-out: control of fungal infection, Puccinia recondita f.sp. tritici
Phytophthora infestans = assay: whole plant or invertebrate; format: in vivo; conditions: in Solanum lycopersicum, foliar, 96 h, read-out: control of fungal infection, Phytophthora infestans
Plasmopara viticola = assay: Leaf disk assay, Plasmopara viticola (downy mildew of grapevine), preventive; format: in vivo; conditions: foliar, 168 h, grapevine leaf disks, assessed seven days after inoculation, read-out: control of fungal infection, Plasmopara viticola
Pythium ultimum = assay: Growth inhibition in potato dextrose broth, Pythium ultimum (damping off), photometric; format: cell-based; conditions: Globisporangium ultimum, 24° C., 48 hours, read-out: control of fungal infection, Pythium ultimum
Experimental: The compounds were tested in a leaf disk assay, with methods described below. The test compounds were dissolved in DMSO and diluted into water to 200 ppm. In the case of the test on Pythium ultimum, they were dissolved in DMSO and diluted into water to 20 ppm. Pythium ultimum (Damping off): Mycelial fragments of the fungus, prepared from a fresh liquid culture, were mixed into potato dextrose broth. A solution of the test compound in dimethyl sulphoxide was diluted with water to 20 ppm then placed into a 96-well microtiter plate and the nutrient broth containing the fungal spores was added. The test plate was incubated at 24° C. and the inhibition of growth was determined photometrically after 48 hours.

C#Cc1cnc2cc(F)c(OC(SC)C(=O)NC(C)(C)C#CC)cc2c1 (stereo not drawn) [Example 107]
≥ 60%: pest or weed control at 200 ppm (Septoria nodorum) | pest or weed control at 200 ppm [1] | inhibition of growth at 60 ppm (Fusarium culmorum) | inhibition of growth at 60 ppm (Septoria tritici) | pest or weed control at 200 ppm [2] | pest or weed control at 200 ppm (Phytophthora infestans) | pest or weed control at 200 ppm (Plasmopara viticola)

C#Cc1cnc2ccc(OC(SC)C(=O)NC(C#C)(CC)CC)cc2c1 (stereo not drawn) [Example 207]
≥ 60%: pest or weed control at 200 ppm [1] | inhibition of growth at 60 ppm (Fusarium culmorum) | pest or weed control at 200 ppm [2] | pest or weed control at 200 ppm (Phytophthora infestans) | pest or weed control at 200 ppm (Plasmopara viticola) | inhibition of growth at 20 ppm (Pythium ultimum)

C#CC(C)(C)NC(=O)C(Oc1ccc2ncc(C#CC)cc2c1)SC (stereo not drawn) [Example 57]
≥ 60%: pest or weed control at 200 ppm (Septoria nodorum) | inhibition of growth at 60 ppm (Fusarium culmorum) | inhibition of growth at 60 ppm (Septoria tritici) | pest or weed control at 200 ppm (Phytophthora infestans) | pest or weed control at 200 ppm (Plasmopara viticola)

C#Cc1cnc2ccc(OC(OC)C(=O)NC(C)(C)C)cc2c1 (stereo not drawn) [Example 87]
≥ 60%: pest or weed control at 200 ppm (Septoria nodorum) | pest or weed control at 200 ppm [1] | inhibition of growth at 60 ppm (Fusarium culmorum) | inhibition of growth at 60 ppm (Septoria tritici) | pest or weed control at 200 ppm [2] | pest or weed control at 200 ppm (Phytophthora infestans) | pest or weed control at 200 ppm (Plasmopara viticola)

C#Cc1cnc2cc(F)c(OC(SC)C(=O)NC(C)(C)C#CCC)cc2c1 (stereo not drawn) [Example 190]
≥ 60%: inhibition of growth at 60 ppm (Fusarium culmorum) | pest or weed control at 200 ppm (Phytophthora infestans) | pest or weed control at 200 ppm (Plasmopara viticola) | inhibition of growth at 20 ppm (Pythium ultimum)

C#Cc1cnc2ccc(OC(SC)C(=O)NC(C)(C)C=O)cc2c1 (stereo not drawn) [Example 61]
≥ 60%: pest or weed control at 200 ppm [1] | inhibition of growth at 60 ppm (Fusarium culmorum) | inhibition of growth at 60 ppm (Septoria tritici) | pest or weed control at 200 ppm [2] | pest or weed control at 200 ppm (Phytophthora infestans) | pest or weed control at 200 ppm (Plasmopara viticola) | inhibition of growth at 20 ppm (Pythium ultimum)

C#Cc1cnc2ccc(OC(OC)C(=O)NC(C)(C)C#CCOC)cc2c1 (stereo not drawn) [Example 125]
≥ 60%: pest or weed control at 200 ppm [1] | inhibition of growth at 60 ppm (Fusarium culmorum) | inhibition of growth at 60 ppm (Septoria tritici) | pest or weed control at 200 ppm (Phytophthora infestans) | pest or weed control at 200 ppm (Plasmopara viticola) | inhibition of growth at 20 ppm (Pythium ultimum)

C#Cc1cnc2ccc(OC(OC)C(=O)NC(C)(C)C#C)cc2c1 (stereo not drawn) [Example 124]
≥ 60%: pest or weed control at 200 ppm (Septoria nodorum) | pest or weed control at 200 ppm [1] | inhibition of growth at 60 ppm (Fusarium culmorum) | inhibition of growth at 60 ppm (Septoria tritici) | pest or weed control at 200 ppm (Phytophthora infestans) | pest or weed control at 200 ppm (Plasmopara viticola) | inhibition of growth at 20 ppm (Pythium ultimum)

CC#Cc1cnc2ccc(OC(SC)C(=O)NC(C)(C)C)cc2c1 (stereo not drawn) [Example 54]
≥ 60%: pest or weed control at 200 ppm (Septoria nodorum) | pest or weed control at 200 ppm [1] | inhibition of growth at 60 ppm (Fusarium culmorum) | inhibition of growth at 60 ppm (Septoria tritici) | pest or weed control at 200 ppm (Phytophthora infestans) | pest or weed control at 200 ppm (Plasmopara viticola) | inhibition of growth at 20 ppm (Pythium ultimum)

COCC#Cc1cnc2ccc(OC(SC)C(=O)NC(C)(C)C)cc2c1 (stereo not drawn) [Example 42]
≥ 60%: pest or weed control at 200 ppm [1] | inhibition of growth at 60 ppm (Fusarium culmorum) | inhibition of growth at 60 ppm (Septoria tritici) | pest or weed control at 200 ppm [2] | pest or weed control at 200 ppm (Phytophthora infestans) | pest or weed control at 200 ppm (Plasmopara viticola) | inhibition of growth at 20 ppm (Pythium ultimum)

C#Cc1cnc2ccc(OC(SC)C(=O)NC(C)(C#N)COC)cc2c1 (stereo not drawn) [Example 25]
≥ 60%: pest or weed control at 200 ppm (Septoria nodorum) | pest or weed control at 200 ppm [1] | inhibition of growth at 60 ppm (Septoria tritici) | pest or weed control at 200 ppm [2] | pest or weed control at 200 ppm (Phytophthora infestans) | pest or weed control at 200 ppm (Plasmopara viticola) | inhibition of growth at 20 ppm (Pythium ultimum)

C#Cc1cnc2c(F)cc(OC(SC)C(=O)NC(C)(C)C)cc2c1 (stereo not drawn) [Example 201]
≥ 60%: pest or weed control at 200 ppm (Septoria nodorum) | pest or weed control at 200 ppm [1] | inhibition of growth at 60 ppm (Fusarium culmorum) | inhibition of growth at 60 ppm (Septoria tritici) | pest or weed control at 200 ppm (Phytophthora infestans) | pest or weed control at 200 ppm (Plasmopara viticola) | inhibition of growth at 20 ppm (Pythium ultimum)

C#CCOCC(C)(COCC#C)NC(=O)C(Oc1ccc2ncc(C#C)cc2c1)SC (stereo not drawn) [Example 165]
≥ 60%: pest or weed control at 200 ppm (Septoria nodorum) | pest or weed control at 200 ppm [1] | inhibition of growth at 60 ppm (Septoria tritici) | pest or weed control at 200 ppm [2] | pest or weed control at 200 ppm (Phytophthora infestans) | pest or weed control at 200 ppm (Plasmopara viticola) | inhibition of growth at 20 ppm (Pythium ultimum)

CSC(Oc1ccc2ncc(C#CBr)cc2c1)C(=O)NC(C)(C)C (stereo not drawn) [Example 69]
≥ 60%: inhibition of growth at 60 ppm (Fusarium culmorum) | inhibition of growth at 60 ppm (Septoria tritici) | pest or weed control at 200 ppm (Phytophthora infestans) | pest or weed control at 200 ppm (Plasmopara viticola) | inhibition of growth at 20 ppm (Pythium ultimum)

C#Cc1cnc2ccc(OC(SC)C(=O)NCC#N)cc2c1 (stereo not drawn) [Example 196]
≥ 60%: pest or weed control at 200 ppm (Septoria nodorum) | pest or weed control at 200 ppm [1] | inhibition of growth at 60 ppm (Fusarium culmorum) | inhibition of growth at 60 ppm (Septoria tritici) | pest or weed control at 200 ppm (Phytophthora infestans) | pest or weed control at 200 ppm (Plasmopara viticola) | inhibition of growth at 20 ppm (Pythium ultimum)

C#Cc1cnc2ccc(OC(SC)C(=O)NC(C)(C)CCOC)cc2c1 (stereo not drawn) [Example 85]
≥ 60%: pest or weed control at 200 ppm (Septoria nodorum) | pest or weed control at 200 ppm [1] | inhibition of growth at 60 ppm (Septoria tritici) | pest or weed control at 200 ppm [2] | pest or weed control at 200 ppm (Phytophthora infestans) | pest or weed control at 200 ppm (Plasmopara viticola) | inhibition of growth at 20 ppm (Pythium ultimum)

C#Cc1cnc2c(C)cc(OC(CC)C(=O)NC(C)(C)CO)cc2c1 (stereo not drawn) [Example 111]
≥ 60%: pest or weed control at 200 ppm (Septoria nodorum) | pest or weed control at 200 ppm [1] | inhibition of growth at 60 ppm (Fusarium culmorum) | inhibition of growth at 60 ppm (Septoria tritici) | pest or weed control at 200 ppm (Phytophthora infestans) | pest or weed control at 200 ppm (Plasmopara viticola) | inhibition of growth at 20 ppm (Pythium ultimum)

C#Cc1cnc2ccc(OC(SC)C(=O)NC(C)(C#C)CC)cc2c1 (stereo not drawn) [Example 205]
≥ 60%: pest or weed control at 200 ppm [1] | inhibition of growth at 60 ppm (Fusarium culmorum) | pest or weed control at 200 ppm (Phytophthora infestans) | pest or weed control at 200 ppm (Plasmopara viticola) | inhibition of growth at 20 ppm (Pythium ultimum)

C#Cc1cnc2ccc(OC(SC)C(=O)NC(C)(C)CC#N)cc2c1 (stereo not drawn) [Example 197]
≥ 60%: inhibition of growth at 60 ppm (Fusarium culmorum) | pest or weed control at 200 ppm (Phytophthora infestans) | pest or weed control at 200 ppm (Plasmopara viticola) | inhibition of growth at 20 ppm (Pythium ultimum)

C#Cc1cnc2ccc(OC(CC)C(=O)NC(C)(C)CO)cc2c1 (stereo not drawn) [Example 110]
≥ 60%: pest or weed control at 200 ppm (Septoria nodorum) | pest or weed control at 200 ppm [1] | inhibition of growth at 60 ppm (Fusarium culmorum) | inhibition of growth at 60 ppm (Septoria tritici) | pest or weed control at 200 ppm (Phytophthora infestans) | inhibition of growth at 20 ppm (Pythium ultimum)

C#Cc1cnc2cc(F)c(OC(CC)C(=O)NC(C)(C)C=O)cc2c1 (stereo not drawn) [Example 193]
≥ 60%: inhibition of growth at 60 ppm (Fusarium culmorum) | pest or weed control at 200 ppm (Phytophthora infestans) | pest or weed control at 200 ppm (Plasmopara viticola) | inhibition of growth at 20 ppm (Pythium ultimum)
